Results from ChEMBL document CHEMBL1201862, “PubChem BioAssay data set” (2004).
Values belong to the compound of their own block, whether it stands above or below them. Active and inactive are the calls of the source.

Key:
[1] = biological target: T1, Microphthalmia-associated transcription factor (Homo sapiens, UniProt O75030); assay: reducers of TRPM1 reporter luminescence, concentration series – cell-based, SK-MEL-5, cherry-picked, set 3, MITF inhibitor project, dose response (AID 493073); format: functional;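 note: SK-MEL-5 melanoma cells with luciferase driven by the MITF target TRPM1 promoter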
T1 sequence (O75030 whole entry): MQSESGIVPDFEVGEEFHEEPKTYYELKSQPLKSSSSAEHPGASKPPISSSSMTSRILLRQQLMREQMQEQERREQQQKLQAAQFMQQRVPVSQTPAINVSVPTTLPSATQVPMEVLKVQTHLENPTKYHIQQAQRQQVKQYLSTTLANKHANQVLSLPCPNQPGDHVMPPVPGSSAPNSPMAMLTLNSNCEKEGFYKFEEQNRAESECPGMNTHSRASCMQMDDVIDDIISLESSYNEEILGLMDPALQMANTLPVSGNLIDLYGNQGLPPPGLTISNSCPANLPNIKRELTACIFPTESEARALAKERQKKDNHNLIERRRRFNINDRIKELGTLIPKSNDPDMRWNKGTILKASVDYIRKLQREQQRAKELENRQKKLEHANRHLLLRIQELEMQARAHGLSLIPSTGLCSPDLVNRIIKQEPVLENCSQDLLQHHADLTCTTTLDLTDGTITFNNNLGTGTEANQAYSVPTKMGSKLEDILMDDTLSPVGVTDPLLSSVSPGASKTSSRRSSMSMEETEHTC

[2] = biological target: Exodeoxyribonuclease V (Escherichia coli (strain K12), UniProt P04993+P07648+P08394); assay: RecBCD inhibition via phage-restricted bacterial growth – absorbance, V66 E. coli, mutant T4 phage, counter-screen for AddAB inhibitor project, dose response (AID 492957); format: functional, cell-based, Escherichia coli str. K-12 substr. MG1655
[3] = Counterscreen for AddAB inhibitors: absorbance-based bacterial cell-based high throughput dose response assay for inhibitors of bacterial viability. [Related pubchem assays (depositor defined):AID435030, AID449728, AID449731, AID488942, AID488955, AID488956]; format: functional
[4] = biological target: Phospholipase A2 (Homo sapiens, UniProt P04054); format: functional;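 note: confirmatory dose-response counterscreen on phospholipase A2, testing hits that came from an ultra-high-throughput screen for ATG4B inhibitors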
[5] = biological target: Cysteine protease ATG4B (Homo sapiens, UniProt Q9Y4P1); format: functional;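 note: Fluorescence-based dose-response confirmation assay measuring inhibition of ATG4B activity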
[6] = biological target: G-protein coupled receptor 55 (Homo sapiens, UniProt Q9Y2T6); assay: blockers of GPR55 signalling, imaged – imaging, image-based, counter-screen for GPR35 antagonist project, SAR follow-up (AID 2397); format: functional
[7] = biological target: G-protein coupled receptor 35 (Homo sapiens, UniProt Q9HC97); assay: SAR Analysis for the identification of Selective Antagonists of ERK1/2 Activity in GPR35-Overexpressing U2OS Cells. [Related pubchem assays: 2079, 2058 ]; format: functional, cell-based
[8] = biological target: Nuclear receptor subfamily 0 group B member 1 (Homo sapiens, UniProt P51843); assay: Luminescence-based cell-based high throughput dose response assay for inhibitors of the orphan nuclear receptor subfamily 0, group B, member 1 (DAX1; NR0B1). [Related pubchem assays (depositor defined):AID504766, AID504790]; format: functional
[9] = test system: HEK293; assay: cells; format: functional, cell-based; conditions: Homo sapiens
[10] = biological target: Tyrosine-protein phosphatase non-receptor type 7 (Homo sapiens, UniProt P35236); format: functional
[11] = biological target: T2, Dual specificity protein phosphatase 6 (Rattus norvegicus, UniProt Q64346)
T2 sequence (Q64346 whole entry): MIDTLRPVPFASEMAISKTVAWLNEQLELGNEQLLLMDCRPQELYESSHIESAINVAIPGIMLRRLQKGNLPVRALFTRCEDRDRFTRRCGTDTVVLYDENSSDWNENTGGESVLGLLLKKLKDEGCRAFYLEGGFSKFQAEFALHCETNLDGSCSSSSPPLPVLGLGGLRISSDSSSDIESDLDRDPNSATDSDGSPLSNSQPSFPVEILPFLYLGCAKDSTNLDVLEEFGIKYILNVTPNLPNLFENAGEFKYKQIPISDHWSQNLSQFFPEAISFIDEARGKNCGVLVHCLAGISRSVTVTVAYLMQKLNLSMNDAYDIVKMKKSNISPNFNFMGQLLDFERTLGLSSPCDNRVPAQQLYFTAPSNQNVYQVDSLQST

[12] = biological target: T2, Dual specificity protein phosphatase 6; format: functional
[13] = biological target: Glyceraldehyde-3-phosphate dehydrogenase (Homo sapiens, UniProt P04406)
[14] = biological target: Dual specificity tyrosine-phosphorylation-regulated kinase 1A (Rattus norvegicus, UniProt Q63470); format: biochemical, Homo sapiens
[15] = biological target: Dual specificity protein kinase CLK1 (Homo sapiens, UniProt P49759); assay: inhibition of human CLK1 activity – biochemical, cherry-picked samples, selectivity assay for Dyrk1A inhibitor project, dose response (AID 588811)
[16] = viability loss of HMLE_sh_eGFP cells – cell-based, luminescence, counter-screen for HMLE_sh_ECad selective toxicity project, dose response (AID 463074); format: functional, Homo sapiens;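 note: HMLE human mammary epithelial cells expressing control shRNA against eGFP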
[17] = biological target: Cytochrome P450 2C9 (Homo sapiens, UniProt P11712)
[18] = Luminescence Cell-Based Dose Retest to Confirm Inhibitors of Cancer Stem Cells. [Related pubchem assays (depositor defined):AID2717, AID2721]; format: functional; conditions: Homo sapiens
[19] = biological target: Nucleotide-binding oligomerization domain-containing protein 1 (Homo sapiens, UniProt Q9Y239); assay: blockers of NOD1 pathway activity – revised, SAR follow-up (AID 2333); format: functional
[20] = biological target: Tumor necrosis factor (Homo sapiens, UniProt P01375); assay: analog potency on TNFa NF-kB signaling – cell-based, revised, SAR follow-up (AID 2337); format: functional
[21] = test system: HEK293; assay: cells; conditions: Homo sapiens
[22] = biological target: Nucleotide-binding oligomerization domain-containing protein 2 (Homo sapiens, UniProt Q9HC29); assay: PubChem AID 2334; format: functional
[23] = biological target: Serine/threonine-protein phosphatase (Candida dubliniensis (strain CD36 / CBS 7987 / NCPF 3949 / NRRLY-17841) (Yeast), UniProt B9W6M3); assay: Fluorescence Cell-Based Secondary Assay to Identify Inhibitors of Calcineurin. [Related pubchem assays (depositor defined):AID1979, AID2007]; format: functional
Chain of Serine/threonine-protein phosphatase (B9W6M3 whole entry): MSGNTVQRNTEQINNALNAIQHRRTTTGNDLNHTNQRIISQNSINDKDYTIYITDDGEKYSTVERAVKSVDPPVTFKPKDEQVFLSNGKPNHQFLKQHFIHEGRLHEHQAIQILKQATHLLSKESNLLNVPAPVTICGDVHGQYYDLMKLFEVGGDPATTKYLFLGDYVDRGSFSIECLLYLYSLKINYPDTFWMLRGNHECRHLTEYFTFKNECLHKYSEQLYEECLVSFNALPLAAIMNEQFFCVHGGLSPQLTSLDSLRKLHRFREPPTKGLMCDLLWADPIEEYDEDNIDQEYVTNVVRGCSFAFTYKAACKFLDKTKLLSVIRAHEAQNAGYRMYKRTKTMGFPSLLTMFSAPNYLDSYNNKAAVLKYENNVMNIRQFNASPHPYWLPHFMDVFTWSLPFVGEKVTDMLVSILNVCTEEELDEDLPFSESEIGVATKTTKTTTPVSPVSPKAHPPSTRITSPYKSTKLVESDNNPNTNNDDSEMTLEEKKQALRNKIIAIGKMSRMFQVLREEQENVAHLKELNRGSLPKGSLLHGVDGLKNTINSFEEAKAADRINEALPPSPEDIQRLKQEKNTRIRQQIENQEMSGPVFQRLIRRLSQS

Chain of Cytochrome P450 2C9 (P11712 whole entry): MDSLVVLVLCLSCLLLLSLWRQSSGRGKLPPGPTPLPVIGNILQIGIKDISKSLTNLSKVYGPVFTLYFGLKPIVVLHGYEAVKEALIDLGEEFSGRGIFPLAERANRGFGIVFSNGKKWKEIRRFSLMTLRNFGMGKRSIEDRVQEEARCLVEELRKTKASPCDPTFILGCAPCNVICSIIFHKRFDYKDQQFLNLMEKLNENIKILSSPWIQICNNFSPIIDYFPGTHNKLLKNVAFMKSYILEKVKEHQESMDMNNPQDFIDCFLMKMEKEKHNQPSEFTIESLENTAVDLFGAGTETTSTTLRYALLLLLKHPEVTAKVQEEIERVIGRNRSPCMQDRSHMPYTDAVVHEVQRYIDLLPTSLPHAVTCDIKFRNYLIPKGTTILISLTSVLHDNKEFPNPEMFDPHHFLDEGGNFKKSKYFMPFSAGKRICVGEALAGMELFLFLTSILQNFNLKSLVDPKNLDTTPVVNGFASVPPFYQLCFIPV
Chain of Nucleotide-binding oligomerization domain-containing protein 2 (Q9HC29 whole entry, the tested form may be a part): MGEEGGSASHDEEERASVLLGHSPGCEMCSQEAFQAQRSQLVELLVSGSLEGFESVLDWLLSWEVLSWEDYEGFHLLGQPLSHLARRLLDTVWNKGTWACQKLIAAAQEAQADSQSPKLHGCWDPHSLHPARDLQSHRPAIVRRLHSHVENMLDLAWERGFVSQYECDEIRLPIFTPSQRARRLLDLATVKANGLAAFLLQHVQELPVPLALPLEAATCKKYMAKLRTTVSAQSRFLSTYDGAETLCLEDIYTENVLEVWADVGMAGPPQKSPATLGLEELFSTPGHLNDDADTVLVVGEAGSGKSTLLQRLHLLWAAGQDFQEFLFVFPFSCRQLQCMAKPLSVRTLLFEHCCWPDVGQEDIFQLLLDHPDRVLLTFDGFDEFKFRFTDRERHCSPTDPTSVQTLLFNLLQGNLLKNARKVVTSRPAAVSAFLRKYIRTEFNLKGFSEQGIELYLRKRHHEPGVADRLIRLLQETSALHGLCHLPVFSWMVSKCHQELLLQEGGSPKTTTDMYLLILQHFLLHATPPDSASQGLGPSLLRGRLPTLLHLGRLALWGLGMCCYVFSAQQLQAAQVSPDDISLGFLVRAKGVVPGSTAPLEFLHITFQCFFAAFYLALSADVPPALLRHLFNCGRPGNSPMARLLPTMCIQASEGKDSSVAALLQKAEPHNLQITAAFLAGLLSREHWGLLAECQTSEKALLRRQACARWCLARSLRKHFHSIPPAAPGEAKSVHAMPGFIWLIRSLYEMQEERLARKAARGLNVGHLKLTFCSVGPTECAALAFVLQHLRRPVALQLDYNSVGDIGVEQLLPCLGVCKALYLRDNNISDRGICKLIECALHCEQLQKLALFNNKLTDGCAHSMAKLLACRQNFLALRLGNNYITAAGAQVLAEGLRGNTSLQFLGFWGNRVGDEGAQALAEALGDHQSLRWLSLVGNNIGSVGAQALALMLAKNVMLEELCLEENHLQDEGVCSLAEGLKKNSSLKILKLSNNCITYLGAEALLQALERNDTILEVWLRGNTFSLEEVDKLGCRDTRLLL
Chain of Tumor necrosis factor (P01375 whole entry): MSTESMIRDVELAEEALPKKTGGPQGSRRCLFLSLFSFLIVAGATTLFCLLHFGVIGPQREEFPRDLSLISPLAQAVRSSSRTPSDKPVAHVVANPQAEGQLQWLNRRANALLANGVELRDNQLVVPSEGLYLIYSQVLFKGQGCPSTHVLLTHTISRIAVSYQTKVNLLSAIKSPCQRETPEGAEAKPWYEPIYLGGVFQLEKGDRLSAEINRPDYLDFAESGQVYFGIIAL
Chain of G-protein coupled receptor 55 (Q9Y2T6 whole entry): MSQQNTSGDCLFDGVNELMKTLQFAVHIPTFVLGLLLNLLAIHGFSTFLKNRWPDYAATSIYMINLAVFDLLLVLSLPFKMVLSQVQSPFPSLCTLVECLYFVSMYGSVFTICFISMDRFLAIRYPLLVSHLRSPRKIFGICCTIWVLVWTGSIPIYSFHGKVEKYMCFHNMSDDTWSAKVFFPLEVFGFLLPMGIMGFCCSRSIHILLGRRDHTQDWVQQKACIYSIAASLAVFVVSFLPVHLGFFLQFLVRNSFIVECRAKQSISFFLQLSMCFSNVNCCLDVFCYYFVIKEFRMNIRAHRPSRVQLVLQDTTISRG
Chain of Phospholipase A2 (P04054 whole entry): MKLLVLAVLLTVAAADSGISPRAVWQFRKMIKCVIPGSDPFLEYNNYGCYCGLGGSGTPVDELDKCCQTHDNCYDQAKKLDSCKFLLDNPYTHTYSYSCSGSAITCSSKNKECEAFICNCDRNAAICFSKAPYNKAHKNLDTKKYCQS
Chain of Cysteine protease ATG4B (Q9Y4P1 whole entry): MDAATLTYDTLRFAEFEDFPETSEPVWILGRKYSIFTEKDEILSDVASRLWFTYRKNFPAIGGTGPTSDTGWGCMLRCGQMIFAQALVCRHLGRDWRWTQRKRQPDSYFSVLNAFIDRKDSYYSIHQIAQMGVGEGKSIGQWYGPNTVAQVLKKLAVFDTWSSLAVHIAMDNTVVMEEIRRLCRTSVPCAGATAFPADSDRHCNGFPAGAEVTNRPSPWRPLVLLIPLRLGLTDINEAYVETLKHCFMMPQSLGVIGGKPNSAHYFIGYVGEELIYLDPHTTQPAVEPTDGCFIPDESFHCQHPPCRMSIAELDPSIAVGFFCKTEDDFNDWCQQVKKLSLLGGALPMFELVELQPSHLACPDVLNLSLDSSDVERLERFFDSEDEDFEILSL
Chain of Dual specificity protein kinase CLK1 (P49759 whole entry): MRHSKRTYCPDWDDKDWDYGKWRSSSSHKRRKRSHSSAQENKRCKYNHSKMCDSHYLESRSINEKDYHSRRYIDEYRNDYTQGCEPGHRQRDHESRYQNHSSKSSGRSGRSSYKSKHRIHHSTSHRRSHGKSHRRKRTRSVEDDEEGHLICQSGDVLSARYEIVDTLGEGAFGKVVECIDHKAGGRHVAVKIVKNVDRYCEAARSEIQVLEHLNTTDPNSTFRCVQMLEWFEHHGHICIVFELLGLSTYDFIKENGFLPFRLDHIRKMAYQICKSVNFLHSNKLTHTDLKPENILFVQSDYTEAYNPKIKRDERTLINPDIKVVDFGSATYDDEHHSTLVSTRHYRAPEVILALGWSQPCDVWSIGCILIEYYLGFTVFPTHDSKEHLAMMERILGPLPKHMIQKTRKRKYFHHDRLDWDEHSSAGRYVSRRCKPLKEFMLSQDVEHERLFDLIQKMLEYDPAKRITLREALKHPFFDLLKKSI
Chain of Nucleotide-binding oligomerization domain-containing protein 1 (Q9Y239 whole entry, the tested form may be a part): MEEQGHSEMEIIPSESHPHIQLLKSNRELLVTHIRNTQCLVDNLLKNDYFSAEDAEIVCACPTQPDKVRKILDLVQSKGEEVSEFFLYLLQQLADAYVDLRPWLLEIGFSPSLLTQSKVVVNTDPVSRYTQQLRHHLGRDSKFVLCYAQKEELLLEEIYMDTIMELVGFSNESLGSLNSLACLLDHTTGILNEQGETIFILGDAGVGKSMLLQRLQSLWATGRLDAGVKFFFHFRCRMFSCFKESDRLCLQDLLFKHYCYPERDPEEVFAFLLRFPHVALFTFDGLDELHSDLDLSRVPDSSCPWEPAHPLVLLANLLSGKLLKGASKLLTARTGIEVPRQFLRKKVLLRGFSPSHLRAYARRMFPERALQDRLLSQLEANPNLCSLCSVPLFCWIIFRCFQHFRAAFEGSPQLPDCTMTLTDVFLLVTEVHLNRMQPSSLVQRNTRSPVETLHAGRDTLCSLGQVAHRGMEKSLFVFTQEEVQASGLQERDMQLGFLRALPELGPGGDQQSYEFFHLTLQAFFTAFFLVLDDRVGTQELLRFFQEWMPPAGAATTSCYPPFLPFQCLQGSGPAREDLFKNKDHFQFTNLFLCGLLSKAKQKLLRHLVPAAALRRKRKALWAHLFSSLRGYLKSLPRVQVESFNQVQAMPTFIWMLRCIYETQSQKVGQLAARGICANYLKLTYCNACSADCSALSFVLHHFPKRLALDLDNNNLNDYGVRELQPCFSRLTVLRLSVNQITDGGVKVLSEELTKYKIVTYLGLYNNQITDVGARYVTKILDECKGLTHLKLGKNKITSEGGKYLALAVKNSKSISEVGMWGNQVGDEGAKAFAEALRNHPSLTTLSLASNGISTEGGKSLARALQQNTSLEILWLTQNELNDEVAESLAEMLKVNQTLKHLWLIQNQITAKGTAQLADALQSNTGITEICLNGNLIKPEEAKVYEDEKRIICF
Chain of G-protein coupled receptor 35 (Q9HC97 whole entry): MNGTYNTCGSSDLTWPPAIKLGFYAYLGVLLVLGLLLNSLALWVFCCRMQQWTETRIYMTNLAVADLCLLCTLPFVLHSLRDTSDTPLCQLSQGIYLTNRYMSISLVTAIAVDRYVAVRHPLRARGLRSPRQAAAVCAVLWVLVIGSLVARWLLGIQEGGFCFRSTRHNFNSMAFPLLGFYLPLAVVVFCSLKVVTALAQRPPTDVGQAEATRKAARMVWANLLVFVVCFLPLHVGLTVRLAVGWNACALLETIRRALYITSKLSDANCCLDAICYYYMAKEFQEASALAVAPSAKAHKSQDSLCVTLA

SMILES: O=C(Cc1ccc2c(c1)OCO2)NN=Cc1ccc([N+](=O)[O-])o1
AC50 [1]: 8.55 µM (active)
IC50 [2]: > 39.5 µM (inactive)
IC50 [3]: 21 µM (inactive)

SMILES: N#Cc1c(N)[nH]c2ccc(Sc3ccccc3)cc12
IC50 [4]: 9.57 µM (active)
IC50 [5]: 11.5 µM (active)

IC50 [6]: 12.3 µM (inactive)
IC50 [7]: 4.58 µM (active)
SMILES: O=C(Nc1ccc2nc(SCc3ccccc3)sc2c1)c1ccccc1C(=O)N1CCOCC1

SMILES: Cc1ccc2nc3c(cc2c1)c(NC(=O)c1ccco1)nn3CC(C)C
IC50 [8]: > 67.5 µM (inactive)
IC50 [9]: > 67.5 µM (inactive)

IC50 [10]: 88 µM (active)
IC50 [11]: > 100 µM (inactive)
IC50 [12]: > 100 µM (inactive)
IC50 [13]: 99.7 µM (active)
SMILES: CCC(CC)c1nnc(NC(=O)Cc2cccs2)s1

AC50 [14]: 14.4 µM (active)
AC50 [15]: 18.3 µM (active)
SMILES: Cc1nc(N)sc1-c1csc(Nc2ccccc2)n1

SMILES: Cc1nn(-c2ccc(F)cc2)c(Cl)c1/C=C(\CCC(=O)O)c1nc2ccccc2s1
AC50 [16]: 23.5 µM (active)
AC50 [17]: 39.8 µM (inconclusive)
AC50 [18]: 18.7 µM (active)

SMILES: CC(C)(C)NC(=S)NNC=C1C=C(Br)C(=O)C(Br)=C1
IC50 [19]: 7.29 µM (active)
IC50 [20]: 15.6 µM (active)
IC50 [21]: > 20 µM (inactive)
IC50 [22]: 7.93 µM (active)

EC50 [23]: > 285 µM (inactive)
SMILES: O=C(Nc1nnc(SCc2ccc(Cl)cc2)s1)c1ccc2ccccc2n1
